Test results reported in US9353093B2, “Indole-1-carboxamides as kinase inhibitors” (Allergan, Inc., priority 2014, dated 2016).
pIC50: −log10 of the molar value. Read-outs that look alike come from different tables or passages of the source.

Columns and labels:
[1] = target: purified cytoplasmic domain KDR protein (VEGFR2) (Homo sapiens (Human), UniProt P35968); assay: VEGFR2 Kinase Assay; type: biochemical; conditions: 2.7 μM ATP, poly-Glu-Tyr (4:1) substrate, 15 minute incubation at 30° C.; read-out: Enzyme VEGFR2 IC50
Sequence of purified cytoplasmic domain KDR protein (VEGFR2) (P35968 786-1356): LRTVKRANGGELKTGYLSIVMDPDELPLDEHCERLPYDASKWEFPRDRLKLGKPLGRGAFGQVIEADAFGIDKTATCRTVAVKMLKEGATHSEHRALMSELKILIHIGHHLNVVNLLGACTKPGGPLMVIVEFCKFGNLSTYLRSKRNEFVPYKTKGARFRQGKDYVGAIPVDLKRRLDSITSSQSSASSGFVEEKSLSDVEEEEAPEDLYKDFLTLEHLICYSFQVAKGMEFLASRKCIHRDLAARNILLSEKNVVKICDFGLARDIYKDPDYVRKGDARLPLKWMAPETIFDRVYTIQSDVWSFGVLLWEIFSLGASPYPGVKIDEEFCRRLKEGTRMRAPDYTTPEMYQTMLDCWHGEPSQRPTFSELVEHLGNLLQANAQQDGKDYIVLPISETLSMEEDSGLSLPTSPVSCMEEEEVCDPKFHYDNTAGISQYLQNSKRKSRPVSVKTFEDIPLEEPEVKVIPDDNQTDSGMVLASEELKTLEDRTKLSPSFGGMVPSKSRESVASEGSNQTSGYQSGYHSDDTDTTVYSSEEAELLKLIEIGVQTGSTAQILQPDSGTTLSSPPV
Experimental: VEGFR2 Kinase Assay Biochemical KDR kinase assays were performed in 96 well microtiter plates that were coated overnight with 75 μg/well of poly-Glu-[…]:1) in 10 mM Phosphate Buffered Saline (PBS), pH 7.4. […] Reactions were carried out in 100 μL reaction volumes containing 2.7 μM ATP in kinase buffer (50 mM Hepes buffer pH 7.4, 20 mM MgCl2, 0.1 mM MnCl2 and 0.2 mM Na3VO4). […] Reactions were initiated by the addition 20 ul per well of kinase buffer containing 200-300 ng purified cytoplasmic domain KDR protein (BPS Bioscience, San Diego, Calif.). Following a 15 minute incubation at 30° C., the reactions were washed 2 mls per well PBS-T. 100 μl of a monoclonal anti-phosphotyrosine antibody-peroxidase conjugate diluted 1:10,000 in PBS-T was added to the wells for 30 minutes. Following a 2 mls per well wash with PBS-Tween-20, 100 μl of O-Phenylenediamine Dihydrochloride in phosphate-citrate buffer, containing urea hydrogen peroxide, was added to the wells for 7-10 minutes as a colorimetric substrate for the peroxidase. […] IC50 values for compound inhibition were calculated directly from graphs of optical density (arbitrary units) versus compound concentration following subtraction of blank values.

[2] = target: purified cytoplasmic domain PDGFR-b protein (PDGFRβ) (Homo sapiens (Human), UniProt P09619); assay: PDGFRβ Kinase Assay; type: biochemical; conditions: 36 μM ATP, poly-Glu-Tyr (4:1) substrate, 60 minute incubation at 30° C.; read-out: Enzyme PDGFβ IC50
Sequence of purified cytoplasmic domain PDGFR-b protein (PDGFRβ) (P09619 554-1106): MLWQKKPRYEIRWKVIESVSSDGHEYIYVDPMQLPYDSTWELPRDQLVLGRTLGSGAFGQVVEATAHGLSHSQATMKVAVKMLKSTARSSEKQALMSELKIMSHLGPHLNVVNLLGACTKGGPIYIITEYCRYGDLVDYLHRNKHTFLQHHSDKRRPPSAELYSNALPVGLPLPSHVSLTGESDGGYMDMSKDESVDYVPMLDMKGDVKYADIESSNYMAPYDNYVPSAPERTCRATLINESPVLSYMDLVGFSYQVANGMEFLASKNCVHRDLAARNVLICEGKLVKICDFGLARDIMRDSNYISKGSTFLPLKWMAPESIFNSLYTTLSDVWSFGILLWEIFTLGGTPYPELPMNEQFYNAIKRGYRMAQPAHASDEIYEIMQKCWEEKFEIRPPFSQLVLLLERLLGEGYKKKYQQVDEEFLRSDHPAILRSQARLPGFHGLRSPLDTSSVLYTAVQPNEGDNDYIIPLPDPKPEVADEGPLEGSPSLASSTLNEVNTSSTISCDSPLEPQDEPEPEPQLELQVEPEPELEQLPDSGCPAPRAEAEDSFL
Experimental: Biochemical PDGFRβ kinase assays were performed in 96 well microtiter plates that were coated overnight with 75 μg of poly-Glu-Tyr (4:1) in 10 mM Phosphate Buffered Saline (PBS), pH 7.4. […] Reactions were carried out in 100 μL reaction volumes containing 36 μM ATP in kinase buffer (50 mM Hepes buffer pH 7.4, 20 mM MgCl2, 0.1 mM MnCl2 and 0.2 mM Na3VO4). […] Reactions were initiated by the addition 20 ul per well of kinase buffer containing 200-300 ng purified cytoplasmic domain PDGFR-b protein (Millipore). Following a 60 minute incubation at 30° C., the reactions were washed 2 mls per well PBS-T. 100 μl of a monoclonal anti-phosphotyrosine antibody-peroxidase conjugate diluted 1:10,000 in PBS-T was added to the wells for 30 minutes. Following a 2 mls per well wash with PBS-Tween-20, 100 μl of O-Phenylenediamine Dihydrochloride in phosphate-citrate buffer, containing urea hydrogen peroxide, was added to the wells for 7-10 minutes as a colorimetric substrate for the peroxidase. […] IC50 values for compound inhibition were calculated directly from graphs of optical density (arbitrary units) versus compound concentration following subtraction of blank values.

[3] = system: VEGFR2 in HUVEC (human umbilical vein endothelial cells); assay: VEGFR2 Cellular Assay (FLIPR, VEGF induced increases in intracellular calcium); type: cell-based; conditions: for IC50: read-out: Receptor VEGFR2 IC50 (nM)
Experimental: VEGFR2 Cellular Assay Automated FLIPR (Fluorometric Imaging Plate Reader) technology was used to screen for inhibitors of VEGF induced increases in intracellular calcium levels in fluorescent dye loaded endothelial cells. HUVEC (human umbilical vein endothelial cells) (Clonetics) were seeded in 384-well fibronectin coated black-walled plates overnight @37° C./5% CO2. Cells were loaded with calcium indicator Fluo-4 for 45 minutes at 37° C. Cells were washed 2 times (EIx405, Biotek Instruments) to remove extracellular dye. For screening, cells were pre-incubated with test agents for 30 minutes, at a single concentration (10 uM) or at concentrations ranging from 0.0001 to 10.0 uM followed by VEGF165 stimulation (10 ng/mL). Changes in fluorescence at 516 nm were measured simultaneously in all 384 wells using a cooled CCD camera. Data were generated by determining max-min fluorescence levels for unstimulated, stimulated, and drug treated samples. IC50 values for test compounds were calculated from % inhibition of VEGF stimulated responses in the absence of inhibitor.

Structure (SMILES)	pIC50 [1]	pIC50 [2]	pIC50 ([3]; VEGF165 stimulation (10 ng/mL), 30 minutes pre-incubation, Fluo-4 calcium, read-out: Receptor VEGFR2 IC50)	IC50 [3] [nM]
CCc1cccc(NC(=O)Nc2cccc(-c3cc4ccccc4n3C(N)=O)c2)c1 [Example 20, 2-[3-({[(3-ethylphenyl)amino]carbonyl}amino)phenyl]-1H-indole-1-carboxamide]	6.62	–	–	–
Cc1cccc(NC(=O)Nc2csc(-c3cc4ccccc4n3C(N)=O)c2)c1 [Example 26, 2-[4-({[(3-methylphenyl)amino]carbonyl}amino)-2-thienyl]-1H-indole-1-carboxamide]	–	5.94	–	–
Cc1ccc(NC(=O)Nc2ccc(-c3cc4ccccc4n3C(N)=O)cc2)cc1 [Example 11, 2-[4-({[(4-methylphenyl)amino]carbonyl}amino)phenyl]-1H-indole-1-carboxamide]	7.64	7.96	< 5.00	–
NC(=O)n1c(-c2cccc(NC(=O)Nc3cccc(C(F)(F)F)c3)c2)cc2ccccc21 [Example 21, 2-{3-[({[3-(trifluoromethyl)phenyl]amino}carbonyl)amino]phenyl}-1H-indole-1-carboxamide]	6.60	5.48	–	–
Cc1ccc(F)c(NC(=O)Nc2csc(-c3cc4ccccc4n3C(N)=O)c2)c1 [Example 29, 2-[4-({[(2-fluoro-5-methylphenyl)amino]carbonyl}amino)-2-thienyl]-1H-indole-1-carboxamide]	7.03	5.34	–	–
NC(=O)n1c(-c2ccc(NC(=O)Nc3cccc(C(F)(F)F)c3)cc2)cc2ccccc21 [Example 6, 2-{4-[({[3-(trifluoromethyl)phenyl]amino}carbonyl)amino]phenyl}-1H-indole-1-carboxamide]	8.05	7.55	–	58
Cc1ccc(F)c(C(=O)Nc2csc(-c3cc4ccccc4n3C(N)=O)c2)c1 [Example 33, 2-{4-[(2-fluoro-5-methylbenzoyl)amino]-2-thienyl}-1H-indole-1-carboxamide]	5.44	< 5.00	–	–
COC(=O)c1ccc2cc(-c3ccc(NC(=O)Nc4cccc(C)c4)cc3)n(C(N)=O)c2c1 [Example 2, methyl 1-(aminocarbonyl)-2-[4-({[(3-methylphenyl)amino]carbonyl}amino)phenyl]-1H-indole-6-carboxylate]	8.30	8.00	–	11
NC(=O)n1c(-c2cccc(NC(=O)Nc3ccc(F)c(Cl)c3)c2)cc2ccccc21 [Example 22, 2-[3-({[(3-chloro-4-fluorophenyl)amino]carbonyl}amino)phenyl]-1H-indole-1-carboxamide]	6.60	< 5.00	–	–
Cc1cccc(NC(=O)Nc2cccc(-c3cc4ccccc4n3C(N)=O)c2)c1 [Example 19, 2-[3-({[(3-methylphenyl)amino]carbonyl}amino)phenyl]-1H-indole-1-carboxamide]	6.56	–	–	–
Cc1ccc(F)c(NC(=O)Nc2ccc(-c3cc4ccccc4n3C(N)=O)cc2)c1 [Example 7, 2-[4-({[(2-fluoro-5-methylphenyl)amino]carbonyl}amino)phenyl]-1H-indole-1-carboxamide]	8.05	7.70	–	41
Cc1ccccc1NC(=O)Nc1ccc(-c2cc3ccccc3n2C(N)=O)cc1 [Example 12, 2-[4-({[(2-methylphenyl)amino]carbonyl}amino)phenyl]-1H-indole-1-carboxamide]	6.76	6.93	–	–
Cc1cccc(NC(=O)Nc2ccc(-c3cc4ccccc4n3C(N)=O)cc2)c1 [Example 3, 2-[4-({[(3-methylphenyl)amino]carbonyl}amino)phenyl]-1H-indole-1-carboxamide]	8.22	7.85	–	17
NC(=O)n1c(-c2ccc(NC(=O)Nc3cc(C(F)(F)F)ccc3F)cc2)cc2ccccc21 [Example 9, 2-{4-[({[2-fluoro-5-(trifluoromethyl)phenyl]amino}carbonyl)amino]phenyl}-1H-indole-1-carboxamide]	–	7.26	–	–
NC(=O)n1c(-c2ccc(NC(=O)Nc3ccccc3)cc2)cc2ccccc21 [Example 10, 2-{4-[(anilinocarbonyl)amino]phenyl}-1H-indole-1-carboxamide]	7.66	7.64	–	150
Cc1ccoc1C(=O)Nc1csc(-c2cc3ccccc3n2C(N)=O)c1 [Example 32, 2-{4-[(3-methyl-2-furoyl)amino]-2-thienyl}-1H-indole-1-carboxamide]	5.50	< 5.00	–	–
CCc1cccc(NC(=O)Nc2csc(-c3cc4ccccc4n3C(N)=O)c2)c1 [Example 28, 2-[4-({[(3-ethylphenyl)amino]carbonyl}amino)-2-thienyl]-1H-indole-1-carboxamide]	7.22	6.58	–	–
NC(=O)n1c(-c2cc(NC(=O)Nc3ccc(F)c(Cl)c3)cs2)cc2ccccc21 [Example 30, 2-[4-({[(3-chloro-4-fluorophenyl)amino]carbonyl}amino)-2-thienyl]-1H-indole-1-carboxamide]	7.08	< 5.00	–	–
NC(=O)n1c(-c2cc(NC(=O)Nc3ccc(Cl)c(C(F)(F)F)c3)cs2)cc2ccccc21 [Example 31, 2-{4-[({[4-chloro-3-(trifluoromethyl)phenyl]amino}carbonyl)amino]-2-thienyl}-1H-indole-1-carboxamide]	–	6.82	–	–
COc1cccc(NC(=O)Nc2ccc(-c3cc4ccccc4n3C(N)=O)cc2)c1 [Example 8, 2-[4-({[(3-methoxyphenyl)amino]carbonyl}amino)phenyl]-1H-indole-1-carboxamide]	7.96	7.92	–	45
Cc1cccc(C(=O)Nc2cccc(-c3cc4ccccc4n3C(N)=O)c2)c1 [Example 24, 2-{3-[(3-methylbenzoyl)amino]phenyl}-1H-indole-1-carboxamide]	5.93	–	–	–
Cc1ccc(F)c(NC(=O)Nc2cccc(-c3cc4ccccc4n3C(N)=O)c2)c1 [Example 23, 2-[3-({[(2-fluoro-5-methylphenyl)amino]carbonyl}amino)phenyl]-1H-indole-1-carboxamide]	6.48	5.52	–	–
NC(=O)n1c(-c2cc(NC(=O)Nc3cccc(C(F)(F)F)c3)cs2)cc2ccccc21 [Example 27, 2-{4-[({[3-(trifluoromethyl)phenyl]amino}carbonyl)amino]-2-thienyl}-1H-indole-1-carboxamide]	–	6.82	–	–
NC(=O)n1c(-c2ccc(NC(=O)Nc3ccc(F)c(Cl)c3)cc2)cc2ccccc21 [Example 5, 2-[4-({[(3-chloro-4-fluorophenyl)amino]carbonyl}amino)phenyl]-1H-indole-1-carboxamide]	–	7.72	–	–
CCc1cccc(NC(=O)Nc2ccc(-c3cc4ccccc4n3C(N)=O)cc2)c1 [Example 1, 2-[4-({[(3-ethylphenyl)amino]carbonyl}amino)phenyl]-1H-indole-1-carboxamide]	–	–	–	13
